Laboratory results reported in patent US12502391B2, “Multi-kinase inhibitors of VEGF and TGF beta and uses thereof” (AIVIVA BIOPHARMA, INC., priority 2018, dated 2025).
Several values for one entry are separate records, joined by “and”; a condition that tells them apart may be missing. Identical values can stand only once.

Assays:
TGF beta1 mRNA = TGF beta1 mRNA expression (qRT-PCR) in rabbit ear hypertrophic scar model; assay type: in vivo, New Zealand white rabbits; conditions: 1% w/w, 100 μl intradermal on days 15 and 29, harvest Day 43
Description: The objective of this study was to examine the effect of test compounds on wound healing and TGF beta expression after dermal injury in a rabbit ear hypertrophic scar model.
In New Zealand white rabbits, maintained under a surgical plane of anesthesia, trauma stimulation of the skin on the ventral surface of both ears is initiated on Day 1. Trauma sites are evaluated on Days 8, 15, 22, 29, 36, and 43. On days 15 and 29, each site is dosed with test compounds (e.g., 1% w/w, 100 μl) by intradermal or intralesional injections.
Mammals are euthanized on Day 43, and the trauma sites are harvested and frozen for TGF beta analysis using quantitative RT-PCR (qRT-PCR) (e.g., A. K. Johnson et al., Dev. Comp. Immunol., 2006; 30(5): 473-84). TGF beta1 mRNA expression levels in treated trauma samples are compared to the expression level in the untreated trauma sample.

[1] = system: suture-induced ocular fibrosis; assay: Rabbit corneal suture-induced ocular fibrosis model; assay type: in vivo, rabbits; conditions: 0.3% w/v eyedrops 35 uL three times daily for 10 days
Excerpt: In order to investigate the anti-fibrotic effect of test compounds following wounding in the eye, a suture-induced ocular fibrosis model was used. Suture was placed intrastromally under a microscope in the cornea of rabbits. In each eye, one 9.0 silk suture was placed, in a vertical position, temporal to the corneal center and a second suture was placed nasal to the corneal center. Each suture had two stromal incursions approximately 2 mm from the limbus. Test compounds having certain spectrum of multikinase inhibition activities and/or vehicle were topically instilled (35 uL/eye) in the eyes three times daily for 10 days the day following surgery. The treatment groups include vehicle, nintedanib (0.3%, w/v), pirfenidone (1%, w/v), riociguat (0.3%, w/v), sorafenib (0.3%, w/v) and lenvatinib (0.3%, w/v). Six left eyes were used per treatment group.
The animals were sacrificed on Day 11 and the eyes enucleated and dissected for histopathological evaluation.

[2] = system: benign prostate hyperplasia; assay: Testosterone and phenylephrine induced benign prostate hyperplasia in rats; assay type: in vivo, Wistar rats; parameters: key to epithelial hyperplasia score, dorsolateral prostate, representative image / epithelial hyperplasia score, ventral prostate, representative image: severity grade 0 = not present to 5 = severe; conditions: TE and PE induced rats; for epithelial hyperplasia score, dorsolateral prostate, representative image / epithelial hyperplasia score, ventral prostate, representative image: intra-prostate injection 0.4 ml on days 1 and 18 (1% w/w; doxazosin mesylate 0.5%), severity grade 0 (not present) through 5 (severe), induced vehicle score=4; for glandular hyperplasia compared to untreated TE/PE induced prostates: intra-prostate injection on days 1 and 18
Description: BPH is a true hyperplastic process. Histologic studies have documented an increase in cell number. A study was conducted, therefore, to determine the effects of test compounds and vehicle on testosterone (TE) and phenylephrine (PE) induced benign prostate hyperplasia in rats. Male Wistar rats were induced with testosterone (2 mg/kg) plus phenylephrine (5 mg/kg) administered daily by subcutaneous injection on days 5 through 32. Vehicle or test compounds (all at 1% w/w), nintedanib, sunitinib, lenvatinib, and 0.5% doxazosin mesylate, were administered by intra-prostate injection (0.4 ml) in dorsolateral and ventral lobes on days 1 and 18. Animals were euthanized on day 32. Body weights were determined and prostate glands were harvested. The experimental design is outlined in Table 6.
At necropsy, the ventral and dorsolateral lobes of the prostate were separated and then cut into halves. The left halves were fixed in 10% neutral buffered formalin, sectioned, and stained with Hematoxylin and Eosin (H&E). Histological changes in these sections were scored. Epithelial hyperplasia was recognized as an increase in epithelial cells within normal-appearing gland profiles, primarily reflected by stratification of epithelial cells and increased presence of epithelial tufting and papillary projections. A severity grade of 0 (not present) through 5 (severe) was assigned to each sample.

TGF-beta 1 = assay: Dermal TGFb1 levels (ELISA) after linear incisional wounds in minipigs; assay type: in vivo, Gottingen Minipigs; conditions: approximately 16 mg intradermally once per incisional wound, biopsies days 4, 7, 9 post-dosing
Excerpt: The purpose of this study was to evaluate the topical effects of axitinib, nintedanib, sorafenib and lenvatinib when administered via intradermal injection to the dorsal skin along linear incisions of minipigs. Linear incisional wound was made to elicit inflammatory and wound healing process in the skin. After dosing, mammals were observed post dose for 9 days to assess the levels of TGFb1 expressions in the skin.
Three male Gottingen Minipigs® dosed once via intradermal injection along the edges of each of the linear incision wound sites for each mammal (wounds on the dorsum, perpendicular to the spine, approximately 3 cm in length and 3 cm distance from the spine). Each incisional wound received approximately 16 mg of the test compound intradermally once along both sides of the linear wound.
On days of 4, 7, and 9 post-dosing, one 4 mm dermal punch biopsy was collected for each incisional wound and processed for TGF-beta 1 analysis with ELISA, using a commercial kit (e.g., the kit from Thermo Fisher or other vendors).

[3] = system: full-thickness excision wounds; assay: Histology of full-thickness excision wounds in Yucatan minipigs (fibroplasia, neovascularization); assay type: in vivo; conditions: for Neovascularization; dermis, average score / Fibroplasia; dermis, average score: Yucatan minipig wound sites after two doses, Day 59, scale 1 (minimal) to 5 (severe); for Neovascularization; dermis, average score: untreated 2.33; for Fibroplasia; dermis, average score: untreated 3.33
Excerpt: (§1) In this experiment, multiple full-thickness excision wounds were made to the dorsum of Yucatan minipigs, and the wound sites were allowed to be re-epithelialized adequately. At four weeks post-wound, the wound sites had normal to pink vascularity and had pliability. Epidermal hyperplasia was observed, as expected for regenerative responses in the full-thickness wounds.
(§2) On Day 28 post-wound, a dose (e.g., 1%) of axitinib, nintedanib, riociguat, sorafenib, sunitinib, and/or lenvatinib was administered into the dermal tissue at or around the wound sites, once every two weeks on two occasions. One wound site was left untreated as the control for each pig. Please note that the particular parameters in this example are only for illustration. One skilled in the art would appreciate that the dosages, administration methods, treatment regimen, and the administration sites may be varied to achieve similar results.
On Day 59 post wound, the minipigs were sacrificed and dermal tissues were collected for qualitative and quantitative evaluation using hematoxylin and eosin, and Mason's Trichrome staining. Dermal fibroplasia was characterized by increased numbers of fibroblasts in the dermis suspended in variable amounts of collagen in wounds.

TGF-β1 mRNA = TGF-β1 mRNA expression (qRT-PCR) in Yucatan pig skin wound sites; assay type: in vivo, Yucatan minipigs; conditions: Yucatan pig skin wound sites after treatments; for TGF-β1 mRNA Expression Fold Relative to Untreated Unwounded Control: individual animals 7369, 7370, 7371, duplicate sets 1 and 2, beta actin reference gene
Excerpt: as §1, §2
In addition, total mRNA was isolated from skin biopsies of the treated wound sites and the untreated unwounded sites of the pigs. The mRNA samples were used to prepare cDNA and analyzed via qRT-PCR. The TGF-β1 expression levels were assessed using beta actin as a reference gene.

Compound	mean folds of TGF beta mRNA expression versus untreated wound sample (TGF beta1 mRNA)	alpha SMA (smooth muscle actin) staining by immunohistochemistry [1]	areas of neovascularization on the corneal surface [1]	fibroplasia and/or collagen density by histological staining [1]	epithelial hyperplasia score, dorsolateral prostate, representative image [2]	epithelial hyperplasia score, ventral prostate, representative image [2]	glandular hyperplasia compared to untreated TE/PE induced prostates [2]	suppression of dermal TGF beta 1 expression over time (TGF-beta 1)	Neovascularization; dermis, average score [3]	Fibroplasia; dermis, average score [3]	TGF-β1 mRNA Expression Fold Relative to Untreated Unwounded Control (TGF-β1 mRNA)	neovascularization and dermal fibroplasia relative to the untreated wound ([3]; Yucatan minipig, two biweekly treatments)	reduction of TGF-β1 mRNA expression levels at treated wounds (TGF-β1 mRNA)
COc1cc2nccc(Oc3ccc(NC(=O)NC4CC4)c(Cl)c3)c2cc1C(N)=O [lenvatinib]	lower than the expression level in the untreated wound sample	significantly reduced alpha SMA (smooth muscle actin) staining	efficacious in reducing the areas of neovascularization	significantly reduced fibroplasia and/or collagen density	2	3	demonstrated reduction of glandular hyperplasia	very effective in suppressing the expression of TGF beta 1	(2.33)	(3.00)	2.27 fold and 0.62 fold and 0.89 fold and 0.38 fold and 0.69 fold and 2.02 fold	–	–
COC(=O)c1ccc2c(c1)NC(=O)/C2=C(\Nc1ccc(N(C)C(=O)CN2CCN(C)CC2)cc1)c1ccccc1 [nintedanib]	lower than the expression level in the untreated wound sample	significantly reduced alpha SMA (smooth muscle actin) staining	efficacious in reducing the areas of neovascularization	significantly reduced fibroplasia and/or collagen density	3	3	demonstrated reduction of glandular hyperplasia	very effective in suppressing the expression of TGF beta 1	(1.67)	(2.33)	0.70 fold and 0.66 fold and 0.55 fold and 0.56 fold and 0.63 fold and 0.87 fold	noticeably reduced neovascularization with a corresponding reduced dermal fibroplasia	most effective
CNC(=O)c1cc(Oc2ccc(NC(=O)Nc3ccc(Cl)c(C(F)(F)F)c3)cc2)ccn1 [sorafenib]	lower than the expression level in the untreated wound sample	–	inhibition of corneal neovascularization	–	–	–	–	not as effective	(2.33)	(3.00)	0.84 fold and 0.60 fold and 0.53 fold and 0.43 fold and 0.55 fold and 0.89 fold	–	most effective
